These results are taken from patent US20120189579A1 (priority 2009, published 2012).

Data set [1] addresses T1, HCV NS5BΔ21/Gal4-DBD fusion protein (Hepatitis C virus genotype 1b, UniProt Q9WMX2).
T1 construct: The protein was expressed with a 21 amino acid C-terminal deletion to remove transmembrane domain; expressed in transfected cells; host or cells: Huh-7 (transient transfection)
As to the kind of experiment: 3D-SCREEN assay (NS5B reporter gene assay in Huh-7 cells). The class given is cell-based, HCV genotype 1b. As to the method:
Human Hepatoma Huh-7 cell line was maintained in DMEM/HAMF-12 supplemented with 10% SVF, 4 mM glutamine, […] Na pyruvate, 1% penistreptomycine. HCV replicon containing Huh-7 cell lines Huh-9.13 and Luc Neo ET (Reblikon) were maintained in DMEM supplemented with 10% SVF, 2 mM glutamine, and 1×NEAA, 100 U/ml penicillin, and 100 μg/ml streptomycine. Replicon cells were maintained in medium supplemented with 1 mg/ml G418 for replicon Huh-9.13 and 0.5 mg/ml for Luc Neo et replicon unless indicated otherwise. Huh-7 and HCV replicon cell lines were maintained at 37° C. and 5% CO2 in a humidified atmosphere. Cells were dissociated at sub confluence with trypsin EDTA 1×.
cDNA encoding HCV NS5B genotype 1b, was cloned in frame with Gal4-DNA Binding Domain. The protein was expressed with a 21 amino acid C-terminal deletion to remove transmembrane domain. Expression of NS5BΔ21/Gal4 DBD fusion protein was under control of SV40 early promoter. 3D-Sensor peptide was cloned in frame with VP16 activation domain. Expression of 3D-Sensor/VP16 AD fusion protein was under control of CMV promoter. Expression of the firefly luciferase reporter gene was inducible by the [Target protein/conformation sensitive peptide/VP16AD] complex.
It is a single-target, cell based assay. Briefly, expression of a reporter gene depends on the interaction of a short peptide, thereafter named 3D-Sensor, and native conformation of the target protein. Whenever the conformation of the target protein is modified, interaction between 3D-sensor and target protein is disrupted and reporter gene is not expressed anymore. Conformation modifiers are identified by loss of expression of reporter gene. NS5B 3D-Screen platform was generated in Huh-7 cell lines by transient transfection of three expression vectors encoding respectively • (i) HCV NS5BΔ21/Gal4-DBD fusion protein • (ii) the 3D-sensor peptide 14/VP16 fusion protein • (iii) the firefly luciferase reporter gene
Huh-7 cells were dissociated the day before transfection and seeded in T175 flasks at a density of 10^7 cells in 30 ml culture medium. Equimolar ratios of vectors were transfected in cell according to optimized jetPEI transfection protocol (PolyPlus Transfection, Illkirch, France) and 10 μg total DNA/10^6 cells. Transfection was performed for 2 hours at 37° C. and 5% CO2 in a humidified atmosphere. After two hours cells were dissociated and seeded in 96 wells plates at a density of 25,000 cells per well and 90 μl culture medium. 10 μl of compounds to be tested were added 2 hours after seeding. Final concentration of DMSO was 1%. Cells were incubated in the presence of compounds for 24 hours after which expression of firefly luciferase reporter gene was quantified. Briefly, culture medium was removed and cells were lysed by addition of 100 μl of lysis buffer containing 125 mM Tris Phosphate ph 7.8, 10 mM EDTA, 5 mM DTT, 50% glycerol and 5% Triton. Plates were vortexed 10 min at 1300 rpm. Cell lysat was transferred in OpaqueWhite Assay 96 well Flat Bottom plates. 100 μl of luciferin solution 1× were added to each well. Luciferin solution contained 40 mM Tris Phosphate ph 7.8, 0.2 mM EDTA, 67 mM DTT, 2.14 mM MgCl2, 5.4 mM MgSO4, 4.7×10^−4 M luciferin, 5.3×10^−4 M ATP and 2.7×10^−4 M Acetyl co enzyme A. Luminescence was immediately measured with Berthold Microlumat Plus LB 96V luminometer with an integration of 0.5 sec. Inhibition was calculated using the formula: % inhibition=(1−(read/average max))*100. Average max=signal in absence of compound
Background: In a reporter assay the amount or activity of a reporter protein is the signal.

Structures can show the parent of a compound that is named as a salt.

In data set [1], `COc1ccc(C(=O)C2=C(O)C(=O)N(c3nnc(-c4ccccc4)s3)C2c2ccc(C(C)(C)C)cc2)cc1` (centres unmarked) [Example 30, 5-(4-tert-butyl-phenyl)-3-hydroxy-4-(4-methoxy-benzoyl)-1-(5-phenyl-[1,3,4]thiadiazol-2-yl)-1,5-dihydro-pyrrol-2-one] yielded an EC50 of 6 µM.
Regarding `CON=C(C1=C(O)C(=O)N(c2ncc(S(=O)(=O)c3ccc([N+](=O)[O-])cc3)s2)C1c1ccc(C(C)C)cc1)c1ccc(C)cc1` (mixture of isomers) [Example 49, 3-hydroxy-5-(4-isopropyl-phenyl)-4-{[methoxyimino]-p-tolyl-methyl}-1-[5-(4-nitro-benzenesulfonyl)-thiazol-2-yl]-1,5-dihydro-pyrrol-2-one], the melting point was determined as 156 °C. In data set [1], this molecule gave an EC50 of 4 µM.
The molecule `COc1ccc(C(=O)C2=C(O)C(=O)N(c3nncs3)C2c2ccc(C(C)(C)C)cc2)cc1` (centres unmarked) [Example 18, 5-(4-tert-butyl-phenyl)-3-hydroxy-4-(4-methoxy-benzoyl)-1-[1,3,4]thiadiazol-2-yl-1,5-dihydro-pyrrol-2-one] displayed a melting point of 289 to 291 °C. In data set [1], this molecule registered an EC50 of 7 µM.
As for `O=C(C1=C(O)C(=O)N(c2ncc(S(=O)(=O)c3ccc([N+](=O)[O-])cc3)s2)C1c1cccc(Cl)c1)c1ccc(Cl)cc1` (centres unmarked) [Example 59], the midpoint of the response in data set [1], the EC50, lay at 14 µM.
`COc1ccc(C(=O)C2=C(O)C(=O)N(c3nnc(C)s3)C2c2ccc(O)cc2)cc1` (centres unmarked): the melting point was 251 °C.
As for `CNC(=O)c1cccc(C2C(C(=O)c3ccc(OC)cc3)=C(O)C(=O)N2c2nnc(C)s2)c1` (centres unmarked) (as salt: hydrochloride), the melting point came out at 238 °C.
`CNC(=O)c1ccc(C2C(C(=O)c3ccc(C)cc3)=C(O)C(=O)N2c2ncc(S(=O)(=O)c3ccc([N+](=O)[O-])cc3)s2)cc1` (centres unmarked) (as salt: hydrochloride): the melting point lay in the range of 195 to 197 °C.
The molecule `COC(=O)c1sc(N2C(=O)C(O)=C(C(=O)c3ccc(Cl)cc3)C2c2ccc(C(C)(C)C)cc2)nc1C` (centres unmarked) [Example 62] came in with an EC50 in data set [1] of 20 µM.
As to `Cc1ccc(C(=O)C2=C(O)C(=O)N(c3ncc(S(C)(=O)=O)s3)C2c2ccc(C(C)C)cc2)cc1` (centres unmarked), the melting point fell in the range of 269 to 271 °C.
In turn, `Cc1ccc(C(=O)C2=C(O)C(=O)N(c3ncc(S(=O)(=O)c4ccc([N+](=O)[O-])cc4)s3)C2c2ccc(C)cc2)cc1` (centres unmarked) [Example 124] came in with an EC50 in data set [1] of 7 µM.
`COc1ccc(C(=O)C2=C(O)C(=O)N(c3nnc(C)s3)C2c2cccc(C(=O)O)c2)cc1` (centres unmarked) came in with a melting point of 281 °C.
In turn, `CC(C)(C)c1ccc(C2C(C(=O)c3nccs3)=C(O)C(=O)N2c2ncc(S(=O)(=O)c3ccc([N+](=O)[O-])cc3)s2)cc1` (centres unmarked) [Example 56, 5-(4-tert-butyl-phenyl)-3-hydroxy-1-[5-(4-nitro-benzenesulfonyl)-thiazol-2-yl]-4-(thiazol-2-carbonyl)-1,5-dihydro-pyrrol-2-one] showed an EC50 in data set [1] below 10 µM.
`O=C(C1=C(O)C(=O)N(c2ncc(S(=O)(=O)c3ccc([N+](=O)[O-])cc3)s2)C1c1cccc(Br)c1)c1ccc(Cl)cc1` (centres unmarked) [Example 57]: in data set [1], the EC50 stood at 4 µM.
In data set [1], `Cc1ccc(C(=O)C2=C(O)C(=O)N(c3ncc(S(=O)(=O)c4ccc([N+](=O)[O-])cc4)s3)C2c2ccc(Cl)cc2)cc1` (centres unmarked) [Example 60] gave an EC50 of 13 µM.
The same measure, in the same setting: under `COc1ccc(C2C(C(=O)c3ccc(C)cc3)=C(O)C(=O)N2c2ncc(S(=O)(=O)c3ccc([N+](=O)[O-])cc3)s2)cc1` (centres unmarked) [Example 53] stands 6 µM.
Turning to `COC(=O)c1cccc(C2C(C(=O)c3ccc(OC)cc3)=C(O)C(=O)N2c2nnc(C)s2)c1` (centres unmarked), the melting point stood at 218 °C.
`CC(C)c1ccc(C2C(C(=O)c3ccc(OC(F)(F)F)cc3)=C(O)C(=O)N2c2ncc(S(=O)(=O)c3ccc([N+](=O)[O-])cc3)s2)cc1` (centres unmarked) [Example 13, 3-hydroxy-5-(4-isopropyl-phenyl)-1-[5-(4-nitro-benzenesulfonyl)-thiazol-2-yl]-4-(4-trifluoromethoxy-benzoyl)-1,5-dihydro-pyrrol-2-one] returned an EC50 in data set [1] of 2 µM.
The molecule `Cc1ccc(C(=O)C2=C(O)C(=O)N(c3ncc(S(=O)(=O)c4ccc([N+](=O)[O-])cc4)s3)C2c2ccc(C(=O)N(C)C)cc2)cc1` (centres unmarked) (as salt: hydrochloride) came in with a melting point of 205 °C.
Molecule `COc1ccc(C2C(C(=O)c3ccc(Cl)cc3)=C(O)C(=O)N2c2ncc(S(=O)(=O)c3ccc([N+](=O)[O-])cc3)s2)cc1` (centres unmarked) [Example 52] returned an EC50 in data set [1] of 6 µM.
The same measure, in the same setting: under `CC(C)c1ccc(C2C(C(=O)Cc3ccccc3)=C(O)C(=O)N2c2ncc(S(=O)(=O)c3ccc([N+](=O)[O-])cc3)s2)cc1` (centres unmarked) [Example 11, 3-hydroxy-5-(4-isopropyl-phenyl)-1-[5-(4-nitro-benzenesulfonyl)-thiazol-2-yl]-4-phenylacetyl-1,5-dihydro-pyrrol-2-one] stands 12 µM.
In data set [1], `CC(C)c1ccc(C2C(C(=O)c3ccc(Cl)cc3)=C(O)C(=O)N2c2ncc(S(=O)(=O)c3ccc([N+](=O)[O-])cc3)s2)cc1` (centres unmarked) [Example 32] registered an EC50 of 2 µM.
The molecule `Cc1ccc(C(=O)C2=C(O)C(=O)N(c3ncc(S(=O)(=O)c4ccc([N+](=O)[O-])cc4)s3)C2c2ccc(C(=O)O)cc2)cc1` (centres unmarked) had a melting point of 308 to 309 °C.
In turn, `CC(C)c1ccc(C2C(Cc3ccccc3)=C(O)C(=O)N2c2ncc(S(=O)(=O)c3ccc([N+](=O)[O-])cc3)s2)cc1` (centres unmarked) [Example 36, 4-benzyl-3-hydroxy-5-(4-isopropyl-phenyl)-1-[5-(4-nitro-benzenesulfonyl)-thiazol-2-yl]-1,5-dihydro-pyrrol-2-one] registered an EC50 in data set [1] of 5 µM.
In the case of `Cc1ccc(C2C(C(=O)c3ccc(Cl)cc3)=C(O)C(=O)N2c2ncc(S(=O)(=O)c3ccc([N+](=O)[O-])cc3)s2)cc1` (centres unmarked) [Example 66], the EC50 in data set [1] came out at 14 µM.
Still for that read-out and setting: under `COc1ccc(C(=O)C2=C(O)C(=O)N(c3nnc(C4CCCCC4)s3)C2c2ccc(C(C)(C)C)cc2)cc1` (centres unmarked) [Example 27] stands 12 µM.
Molecule `CC(C)(C)c1ccc(C2C(C(=O)CCc3ccccc3)=C(O)C(=O)N2c2ncc(S(=O)(=O)c3ccc([N+](=O)[O-])cc3)s2)cc1` (centres unmarked) yielded a melting point of 172 °C.
`COC1=C(C(=O)c2ccc(C)cc2)C(c2ccc(C(C)C)cc2)N(c2ncc(S(=O)(=O)c3ccc([N+](=O)[O-])cc3)s2)C1=O` (centres unmarked) came in with a melting point of 237 °C.
Regarding `COc1ccc(C(=O)C2=C(O)C(=O)N(c3nnc(C)s3)C2c2ccc(C#N)cc2)cc1` (centres unmarked), the melting point amounted to 185 °C.
Still for that read-out and setting: under `COC(=O)c1ccc(C2C(C(=O)c3ccc(OC)cc3)=C(O)C(=O)N2c2nnc(C)s2)cc1` (centres unmarked) stands 255 to 257 °C; under `Cc1ccc(C(=O)C2=C(O)C(=O)N(c3ncc(S(=O)(=O)c4ccc([N+](=O)[O-])cc4)s3)C2c2cccnc2)cc1` (centres unmarked), 211 °C.
Turning to `COC1=C(C(=O)c2ccc(OC)cc2)C(c2ccc(C(C)(C)C)cc2)N(c2nnc(C)s2)C1=O` (centres unmarked), the melting point was 235 to 237 °C.
As for `CC(C)c1ccc(C2C(C(=O)c3ccc(C(C)(C)C)cc3)=C(O)C(=O)N2c2ncc(S(=O)(=O)c3ccc([N+](=O)[O-])cc3)s2)cc1` (centres unmarked) [Example 9, 4-(4-tert-butyl-benzoyl)-3-hydroxy-5-(4-isopropyl-phenyl)-1-[5-(4-nitro-benzenesulfonyl)-thiazol-2-yl]-1,5-dihydro-pyrrol-2-one], the EC50 in data set [1] was 4 µM.
Turning to `COc1ccc(C(=O)C2=C(O)C(=O)N(c3nnc(C)s3)C2c2ccc(C(=O)O)cc2)cc1` (centres unmarked), the melting point was 281 °C.

In general, EC50 refers to the concentration needed to bring the measured effect to its halfway point. A higher EC50 goes with a need for much substance. As usually defined, the melting point is the temperature of the solid-liquid transition.
